Source: US11891623B2, “Generation of neural stem cells from human trophoblast stem cells” (Accelerated BioSciences Corp., priority 2010, dated 2024)

Assays:
[1] = tested on: intracellular calcium in hTS cells; experiment: Real-time live cell calcium imaging in RA-treated hTS cells; format: cell-based, human
Description: FIGS. 21a-21n illustrate activation of Gαq/11 signaling pathway: (21a) illustrates expressions of Gαq/11 pathway-related components after RA treatment (10 μM) over time by Western blots; (21b) illustrates real-time live cell imaging microscopy (Cell-R system, Olympus, Tokyo) in hTS cells which were cultured in the calcium-free medium and pre-loaded with Fluo4 (1 μM) in BSS buffer 20 min before RA treatment. […] (c) After depletion of ER calcium, KCl (60 mM) enabled to activate L-type calcium channels.

Huh-7 cells = experiment: BBP-induced signaling in Huh-7 cells (RT-PCR, Western blot, immunofluorescence); format: cell-based, human
Description: Huh-7 cells (3×10^5) were seeded into a 6-well dish and incubated for 24 h. Cells cultured serum-free medium overnight were treated with BBP (1 μM) for various time intervals. After BBP stimulation, cells were washed twice with PBS. Total RNAs were extracted by TRIzol methods (Invitrogen). RNA (2 μg) was used to synthesize cDNA by Reverse Transcription System (Promega). The c-DNAs were amplified by the specific primers. The primer pairs were designed as follows: AhR, forward 5′-TACTCTGCCGCCCAAACTGG-3′ (SEQ ID NO:49), reverse 5′-GCTCTGCAACCTCCGATTCC-3′ (SEQ ID NO:50); β-actin, forward 5′-CTC GCT GTC CAC CTT CCA-3′ (SEQ ID NO:51), reverse 5′-GCT GTC ACC TTC ACC GTTC-3′ (SEQ ID NO:52). PCR conditions were set at 95° C. for 5 min and 95° C. for 30 sec, 54° C. for 30 sec, 72° C. for 1 min followed by 72° C. for 10 min (36 cycles). The products were separated by 2% agarose gels and visualized by ethidium bromide.
Huh-7 cells (1×10^6) were seeded into 10 cm dish and cultured overnight. The culture medium was changed to serum-free medium for another night. Cells were treated with BBP (1 μM) for various time intervals. […] Cells were then washed twice with ice-cold PBS and lysed by RIPA lysis buffer (Minipore). Protein concentration was measured by BCA protein assay kit (Thermo). Equal amounts of protein (30 μg protein) were resolved by 8% SDS-PAGE, transferred onto PVDF membrane, and blocked with 5% non-fat dry milk for 1 h at room temperature. After blocking, the membrane was incubated with the primary antibodies including AhR (1:1000), Cox-2 (1:1000), Gαq/11 (1:100), Gβ (1:100), β-actin (1:5000), p44/42 MAP kinase (1:1000) or phospho-p44/42 MAP kinase (1:1000) overnight at 4° C. Cells were washed three times with PBST and then incubated with HRP conjugated secondary antibodies for 1 h at room temperature. After washing, the blot was visualized using an enhanced chemiluminescence kit (ECL) (Amersham).
Cells with or without transfection by AhR siRNA were cultured and treated with BBP (1 μM) for 5 and 15 min each. After treatment with primary and secondary antibodies for AhR and Gαq/11, cells were subjected to confocal immunofluorescence microscopy to analyze the dynamic movement in the cell compartments.

[2] = tested on: intracellular calcium in Huh-7 cells; experiment: Real-time live cell calcium imaging in BBP-treated Huh-7 cells; format: cell-based, human
Description: Cells were pre-treated with Fluo-4 (1 μM), a Ca^2+-specific dye, in BSS buffer at 37° C. for 20 min before treatment with BBP (1 μM). Measurements of relative intracellular calcium intensity were performed by real-time cell imaging microscopy and analyzed by Cell-R software system (Olympus).

IP3R = conditions: pretreatment with 2-APB
AhR = experiment: TIRF microscopy of GFP-tagged AhR at the plasma membrane in Huh-7 cells; format: cell-based, human; conditions: BBP 1 μM
Excerpt: Immunofluorescence studies are considered important for the dynamic study of signal transduction through their ability to capture snapshots of molecular changes in the cell. Human hepatic Huh-7 cancer cells were pre-transfected with pGFP-C1-AhR by using LT1 transfection reagent (Minis Bio LLC, WI) and total internal reflection fluorescence microscopy to selectively observe the molecular events in the cytoplasmic region immediately beneath the plasma membrane. When BBP was introduced, a rapid but transient recruitment and translocation of the GFP-tagged AhR occurred at the subcellular membrane regions, showing a fast elevation and peaking in 115 seconds followed by a gradual decrease in AhR that occurred over a few minutes (FIG. 14a). This fast, dynamic movement of the memAhR at the subcellular membrane is reminiscent of the notion of soft-wired signal transduction.
Huh-7 cells were pre-transfected with pGFP-C1-AhR (a gift of H. Li) by using LT1 transfection reagent (Minis Bio LLC, Madison, WI) for 24 h. For TIRF microscopy, cells were cultured in serum-free medium on cover-slip overnight followed by stimulation by BBP (1 μM, Sigma). The dynamic activities of GFP-tagged AhR at the cell membrane were observed and analyzed by using Zeiss TIRF microscope with Axio Vision Rel. 4.8 software.

CaMKII = CaMKII inhibitor effect on eIF4B expression (Western blots); format: cell-based, human; conditions: KN93 1 μM, 2 hr
Description: FIGS. 21a-21n illustrate activation of Gαq/11 signaling pathway: (21a) illustrates expressions of Gαq/11 pathway-related components after RA treatment (10 μM) over time by Western blots; (21b) illustrates real-time live cell imaging microscopy (Cell-R system, Olympus, Tokyo) in hTS cells which were cultured in the calcium-free medium and pre-loaded with Fluo4 (1 μM) in BSS buffer 20 min before RA treatment. (a) The RA-induced depletion of intracellular calcium was rescued by adding CaCl2 (2 mM) with a SOCE pattern. […] (c) After depletion of ER calcium, KCl (60 mM) enabled to activate L-type calcium channels.
The transient CaMKII bound and activated eukaryotic initiation factor 4B (eIF4B) (FIG. 21c) to initiate mRNA translation machinery via a cap-independent mechanism.

hTS cells [3] = experiment: RA-induced differentiation of hTS cells; format: cell-based, human
Description: In another embodiment, a similar ratio in distribution of mixed RA-induced neural progenitors results over 1 to 5-day RA-induction periods. In another embodiment, the cell differentiation becomes undefined trophoblast giant cells over a 7-day RA treatment.
Cells were cultured in conditioned α-MEM containing 20% FBS, 1% penicillin-streptomycin, and 10 μg/ml bFGF (CytoLab Ltd, Rehovot, Israel) at 37° C. in 5% CO2. The medium was refreshed every 3 days in general. After 5 passages of culture, cell differentiations into a variety of specific cell phenotypes were performed by various strategies as shown in the Table in FIG. 12. For osteogenic differentiation, cytochemical mineral matrix was analyzed using an Alizarin red S assay (Sigma-Aldrich, St. Louis, MO) to detect the calcium mineral content. To identify the calcium deposits, cells were fixed and incubated with 2% silver nitrate solution (w/v) for 10 min in dark followed by thorough wash with de-ionized water and exposed under bright light for 15 min. Cells were treated with […] to detect alkaline phosphatase activity using a commercial kit (Sigma-Aldrich, St. Louis, MO). Chondrogenic differentiation was confirmed using Alcian blue staining (Sigma-Aldrich, St. Louis, MO) at an acidic pH level. […]

hTS cells [4] = experiment: RA-induced protein/mRNA expression over time in hTS cells (Western blots, RT-PCR, flow cytometry); format: cell-based, human
Description: For RT-PCR, total RNA from 10^5-10^6 cells was extracted by using TRIZOL reagent (Invitrogen) and mRNA expression by using a Ready-To-Go RT-PCR Beads kit (Amersham Biosciences, Buckinghamshire, UK). Briefly, the reaction products were resolved on 1.5% agarose gel and visualized with ethidium bromide. β-actin or β-2 microglobulin was used as a positive control. All experiments were performed in triplicate. For qPCR, gene expression was measured with the iQ5 Real-Time PCR Detection System (Bio-Rad Laboratories) and analyzed with Bio-Rad iQ5 Optical System Software, version 2.0 (Bio-Rad Laboratories). Relative mRNA levels were calculated using the comparative Ct method (Bio-Rad, instruction manual) and presented as a ratio to biological controls. All primer pairs were confirmed to approximately double the amount of product within one cycle and to yield a single product of the predicted size.
Cells were seeded into 10 cm dish with the serum-free medium for overnight and treated with or without RA (10 μM) for various time intervals as indicated. After stimulation, cells were washed twice with ice-cold PBS and lysed by RIPA lysis buffer (Minipore). Protein concentration was determined by BCA protein assay kit (Thermo). Equal amounts of protein (30 μg) were resolved by 8% SDS-PAGE, transferred onto PVDF membrane and blocked with 5% non-fat dry milk for 1 h at room temperature. After blocking, the membrane was incubated with primary antibodies for 4 h at 4° C. Cells were washed three times with PBST and then incubated with HRP conjugated secondary antibodies for 1 h at room temperature. After washing six times with PBST buffer, the membrane was incubated with a chemiluminescent substrate (GE Healthcare) for 1 min. Specific bands were visualized using an enhanced chemiluminescence kit (ECL) (Amersham).
hTS cells obtained from the preimplantation embryos in women with early tubal ectopic pregnancy were described previously. Adherent hTS cells were cultured in conditioned α-MEM containing 10 μg/ml bFGF (JRH, Biosciences, San Jose, CA), 10% FBS, and 1% penicillin-streptomycin at 37° C. in 5% CO2. Cells were treated by RA (10 μM) for various time intervals depending on the experiments.

[5] = tested on: protein kinase C (PKC) pathway; conditions: cited from earlier work
hTS cells [6] = experiment: RA effect on Nanog, Oct4, Sox2, Cdx2 expression in hTS cells (flow cytometry)

Compound: NCCOB(c1ccccc1)c1ccccc1 [2-APB, 2-aminoethoxydiphenyl borate]
- RA-induced ER calcium release ([1]; 2-APB, dose-dependent): inhibited
- BBP-induced COX-2 production (Huh-7 cells): blocked
- BBP-elicited intracellular calcium levels ([2]; 2-APB at various concentrations): dose-dependently inhibit
- Calcineurin, NFAT1, and MEF2A expression (IP3R): inhibited

Compound: CCCCOC(=O)c1ccccc1C(=O)OCc1ccccc1 [BBP, Benzyl butyl phthalate]
- time to peak of GFP-tagged AhR recruitment at subcellular membrane (AhR): 115 s
- time of COX-2 production (Huh-7 cells; BBP 1 μM): 15 min
- time of induction of AhR mRNA expression (Huh-7 cells; BBP 1 μM, RT-PCR): 5 min
- time of peak AhR mRNA expression (Huh-7 cells; BBP 1 μM, RT-PCR): 15 min
- time of Gαq/11 and Gβ production (Huh-7 cells; BBP 1 μM, Western blot): 30 min
- time of elevation in AhR production (Huh-7 cells; BBP 1 μM, Western blot): 15 min
- ARNT expression (Huh-7 cells; BBP 1 μM, overnight): significantly inhibited
- time of ERK1/2 phosphorylation (Huh-7 cells; BBP 1 μM, dephosphorylated at 30 min): 15 min
- intracellular calcium response ([2]; BBP 1 μM, calcium free medium): release of intracellular calcium

Compound: COc1ccc(S(=O)(=O)N(CCO)c2ccccc2CN(C)C/C=C/c2ccc(Cl)cc2)cc1 [KN93]
- eIF4B expression (CaMKII): inhibited

Compound: CC1=C(/C=C/C(C)=C/C=C/C(C)=C/C(=O)O)C(C)(C)CCC1 [RA, all-trans retinoic acid]
- differentiation of hTS cells into neural cell phenotypes (hTS cells [3]; RA 10 μM, 1 to 7 days): induces hTS cells differentiation into a variety of phenotypical neural cells
- giant cell formation (hTS cells [3]; treatment with all-trans retinoic acid): resulted in a formation of giant cells
- time of peak c-Src mRNA expression (hTS cells [4]; RA 10 μM, RT-PCR): 15 min
- time of transient elevation of RXRα mRNA and RARβ mRNA (hTS cells [4]; RA 10 μM, RT-PCR): 15 min
- time of production of c-Src protein (hTS cells [4]; RA 10 μM, Western blot): 1 h
- Wnt2B and FRAT1 expression (hTS cells [4]; RA 4 hr and 24 hr incubation, Western blots): significantly upregulated
- GSK3β activity state (hTS cells [4]; RA 4 hr vs overnight, flow cytometry): initially activated in 4 hr but transited into inhibitory later
- Fzd6 mRNA expression (hTS cells [4]; RA, RT-PCR): overexpression
- calcineurin production (hTS cells [4]; RA, Western blot): induced production
- time of CaMKII activation (hTS cells [4]; RA, Western blot): 1 to 2 h
- time of HDAC6 elevation (hTS cells [4]; RA, Western blot): 2 h
- time of Nanog production (hTS cells [4]; RA, Western blot): 4 h
- time of RARβ production (hTS cells [4]; RA, Western blots): 4 h
- time of c-Src expression (hTS cells [4]; RA, Western blots): 5 min
- time of production of Gαq/11 and Gβ (hTS cells [4]; RA, Western blots): 30 min
- time of transient Akt3 activation (hTS cells [4]; RA, Western blots): 1 h
- β-catenin activation (hTS cells [4]; RA, between 30 min and 24 hr, Western blots): significantly activated
- time of mTOR phosphorylation at serine 2448 (hTS cells [4]; RA, disappeared after 24 hr): 4 h
- time of peak eIF4B production (hTS cells [4]; RA, fading away at 24 hr): 4 h
- intracellular Ca2+ response ([1]; RA, calcium-free medium, Fluo4): transiently intracellular Ca^2+ release
- time of translocation of PKC-γ [5]: ≤ 5 min
- increase in intracellular diacylglycerol (DG) ([5]; transient, at 2 min): 1.3 fold
- effect on expression of Nanog, Oct4, Sox2, Cdx2 (hTS cells [6]; RA one day): promoted expressions of Nanog, Oct4 and Sox2 but not Cdx2
- Nanog expression (hTS cells [6]; RA-induced cells (10 μM, 1 day)): 26.9%
